From patent US5041445A, “3-[1-thiazolidinylbutyl-4-piperazinyl]-1H-indazoles” (Hoechst-Roussel Pharmaceuticals Incorporated, priority 1990, dated 1991)

Test system: apomorphine climbing
Assay: Climbing Mouse Assay (CMA), antagonism of apomorphine-induced climbing
Format: in vivo, CK-1 male mice
Settings: ip, 30 minutes prior to apomorphine 1.5 mg/kg s.c., linear regression, read-out: Climbing Mice Assay ED50
Description: The compounds of the present invention are potentially useful as antipsychotic agents as determined in the Climbing Mouse Assay (CMA).
The Climbing Mouse Assay is described by P. Protais, et al., Psychopharmacol., 50, 1 (1976) and B. Costall, Eur. J. Pharmacol., 50, 39 (1978).
The subject CK-1 male mice (23-27 grams) are group-housed under standard laboratory conditions. The mice are individually placed in wire mesh stick cages (4"×4" by 10") and are allowed one hour for adaptation and exploration of the new environment. The apomorphine is injected subcutaneously at 1.5 mg/kg, a dose causing climbing in all subjects for 30 minutes. Compounds to be tested for antipsychotic activity are injected intraperitoneally (i.p.) 30 minutes prior to the apomorphine challenge at a screening dose of 10 mg/kg.
For evaluation of climbing, 3 readings are taken at 10, 20 and 30 minutes after apomorphine administration according to the following scale: […]
______________________________________
4 paws on bottom (no climbing)
2 paws on the wall (rearing)
4 paws on the wall (full climb)
Mice consistently climbing before the injection of apomorphine are discarded.
With full-developed apomorphine climbing, the animals are hanging onto the cage walls, rather motionless, over longer periods of time. By contrast, climbs due to mere motion stimulation usually last only a few seconds.
The climbing scores are individually totaled (maximum score: 6 per mouse over 3 readings) and the total score of the control group (vehicle intraperitoneally; apomorphine subcutaneously) is set to 100%. ED50 values with 95% confidence limits, calculated by linear regression analyses of some of the compounds of this invention are presented in Table 1.

Point of comparison: `O=C1N(CCCCN2CCN(c3n[nH]c4ccccc34)CC2)CSC12CCCC2` [3-(4-(1-[1H-Indazol-3-yl]-4-piperazinyl)butyl)-1-thia-3-azaspiro[4.4]nonan-4-one], ED50 1.3 mg/kg. Against it:
- CC1(C)SCN(CCCCN2CCN(c3n[nH]c4ccccc34)CC2)C1=O [3-(4-(1-[1H-Indazol-3-yl]-4-piperazinyl)-butyl)-5,5-dimethyl-4-thiazolidinone] — the same, 1.3 mg/kg
- CC1SCN(CCCCN2CCN(c3n[nH]c4cc(F)ccc34)CC2)C1=O (centres unmarked) [3-{4-[1-(6-Fluoro-1H-indazol-3-yl)-piperazinyl]butyl}-5-methyl-4-thiazolidinone] — 12-fold lower, 0.11 mg/kg
- O=C1N(CCCCN2CCN(c3n[nH]c4ccccc34)CC2)CSC12CCCCC2 [3-(4-(1-[1H-indazol-3-yl]-4-piperazinyl)butyl)-1-thia-3-azaspiro[4.5]decan-4-one] — 2-fold lower, 0.65 mg/kg
- CN1CCN(C2=Nc3cc(Cl)ccc3Nc3ccccc32)CC1 [Clozapine, reference compound] — 6.2-fold higher, 8.1 mg/kg
- O=C1N(CCCCN2CCN(c3n[nH]c4cc(F)ccc34)CC2)CSC12CCCCC2 [3-{4-[1-(6-Fluoro-1H-indazol-3-yl)-4-piperazinyl]butyl}-1-thia-3-azaspiro[4.5]decan-4-one] — 32-fold lower, 0.04 mg/kg

Same assay, conditions: po, apomorphine 1.5 mg/kg s.c., linear regression, read-out: Climbing Mice Assay ED50

Point of comparison: `O=C1N(CCCCN2CCN(c3n[nH]c4ccccc34)CC2)CSC12CCCC2` [3-(4-(1-[1H-Indazol-3-yl]-4-piperazinyl)butyl)-1-thia-3-azaspiro[4.4]nonan-4-one], ED50 2.7 mg/kg. Against it:
- O=C1N(CCCCN2CCN(c3n[nH]c4cc(F)ccc34)CC2)CSC12CCCCC2 [3-{4-[1-(6-Fluoro-1H-indazol-3-yl)-4-piperazinyl]butyl}-1-thia-3-azaspiro[4.5]decan-4-one] — 4-fold lower, 0.67 mg/kg
